Patent US11999676B2, “Vesicular monoamine transporter-2 ligands and their use in the treatment of psychostimulant abuse” (priority 2016, dated 2024)
Where two headings read alike, the source gives them in different places.

Key:
[1] = target: T1, VMAT2 (Rattus norvegicus (Rat), UniProt Q01827); conditions: rat brain synaptic vesicles; read-out: [3H]DTBZ binding (Ki) VMAT2
[2] = target: T1, VMAT2; experiment: [3H]Dopamine ([3H]DA) uptake assay, vesicular preparation; assay type: biochemical
[3] = in vitro; conditions: both, human, microsomes, pH 7.4, Microsomal stability assays: Clearance
Procedure: (§1) Each plate holds triplicate samples of two controls (0.4 mM) and up to 14 compounds (0.08 mM) in rat and human liver microsomes. Aliquots of each well of the plate (175 μl of each well) were transferred from the master plate into 5 assay plates. For 0-hr time point, pre-cooled (4° C.) internal standard (437.5 μL, 2 μM caffeine in methanol) was added to the first plate before the reaction starts. NADPH regenerating system solution A (6.05 ml, Fisher Scientific, #NC9255727) was combined with NADPH regenerating system solution B (1.21 ml, Fisher Scientific, #NC9016235) in potassium phosphate buffer (15.8 ml, 0.1 M, pH 7.4, 37° C.). The resulting NADPH solution (43.8 μl) was added to each well of all the 96-well assay plates and mixed with pipette briefly making the final protein and compound concentrations respectively: 0.5 mg/ml, 0.08 μM (0.4 μM for controls). Plates were sealed, and all plates except the 0-hr plate were incubated at 37° C., shaken at a speed of 60 rpm. A single assay plate was tested at each time point: 0.5 hr, 1 hr, 2 hr, and 4 hr. At each time point, 437.5 μL of pre-cooled internal standard was added each well of the plate to quench the reaction. […] 120 μl supernatant was transferred to a 96-well plate, centrifuged again and analyzed by UPLC-MS (Waters Inc., Milford, MA). The compounds and internal standard were detected by selected ion recording (SIR).
(§2) The amount of material was measured as a ratio of peak area to the internal standard and graphed. Using the slope from the initial linear portion of this curve, the degradation rate constant is calculated using equation [1].

[4] = Microsomal stability assay, human liver microsomes; conditions: for half-life at 0.08 µM / CLint scaled at 0.08 µM: both, human, pooled liver microsomes; for half-life at 0.08 µM: pH 7.4, Microsomal stability assays: Half-life; for CLint scaled at 0.08 µM: pH 7.4, Microsomal stability assays: Clearance
Procedure: as §1, §2

[5] = target: hERG channel (Homo sapiens (Human), UniProt Q12809); experiment: [3H]Dofetilide binding assay, HEK-293 cell membrane preparation; conditions: [3H]dofetilide, HEK-293 cell membranes; read-out: hERG Binding: Mean Ki ± Standard Deviation
Sequence of hERG channel (Q12809 whole entry): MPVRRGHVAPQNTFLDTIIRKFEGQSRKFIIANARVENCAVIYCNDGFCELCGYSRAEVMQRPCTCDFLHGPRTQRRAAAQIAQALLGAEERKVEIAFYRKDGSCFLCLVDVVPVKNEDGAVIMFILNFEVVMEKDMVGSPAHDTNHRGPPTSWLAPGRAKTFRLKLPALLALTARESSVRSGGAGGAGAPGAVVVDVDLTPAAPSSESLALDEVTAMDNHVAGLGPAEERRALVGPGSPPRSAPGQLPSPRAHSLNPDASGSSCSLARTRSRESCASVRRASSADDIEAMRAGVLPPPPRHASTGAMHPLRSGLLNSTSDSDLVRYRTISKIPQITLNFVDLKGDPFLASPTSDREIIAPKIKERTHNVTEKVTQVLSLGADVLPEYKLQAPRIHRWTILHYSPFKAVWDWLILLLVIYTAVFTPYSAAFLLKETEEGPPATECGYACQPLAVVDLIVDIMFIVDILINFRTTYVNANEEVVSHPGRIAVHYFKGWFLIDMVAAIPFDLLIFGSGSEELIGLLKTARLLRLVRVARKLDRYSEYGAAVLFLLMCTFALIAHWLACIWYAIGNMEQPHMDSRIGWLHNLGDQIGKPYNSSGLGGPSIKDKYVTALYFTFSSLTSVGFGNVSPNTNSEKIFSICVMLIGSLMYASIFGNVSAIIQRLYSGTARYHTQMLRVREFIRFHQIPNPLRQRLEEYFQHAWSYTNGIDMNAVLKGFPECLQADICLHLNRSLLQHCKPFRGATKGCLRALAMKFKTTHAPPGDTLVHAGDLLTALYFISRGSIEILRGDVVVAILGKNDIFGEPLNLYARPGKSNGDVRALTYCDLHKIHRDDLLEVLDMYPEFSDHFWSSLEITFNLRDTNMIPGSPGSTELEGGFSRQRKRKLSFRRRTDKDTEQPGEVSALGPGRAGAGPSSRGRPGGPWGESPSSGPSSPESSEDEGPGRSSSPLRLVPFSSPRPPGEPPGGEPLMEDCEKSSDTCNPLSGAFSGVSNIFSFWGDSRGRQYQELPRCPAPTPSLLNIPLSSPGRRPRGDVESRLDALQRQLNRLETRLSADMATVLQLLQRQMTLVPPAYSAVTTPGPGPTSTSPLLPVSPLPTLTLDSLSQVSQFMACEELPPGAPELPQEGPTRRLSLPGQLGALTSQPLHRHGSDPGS
Procedure: [^3H]Dofetilide binding assays were conducted using commercially available HEK-293 cell membranes which stably express the hERG channel. Membranes were suspended in assay buffer (50 mM Tris, 10 mM KCl, 1 mM MgCl2, pH 7.4) prior to the experiment. […] Aliquots of the HEK-293 cell membrane suspension which contained 5 μg membrane protein were added to tubes containing assay buffer, 5 nM [^3H]dofetilide and a range of concentrations of analog (10 nM-100 μM). Nonspecific binding was determined in the presence of amitriptyline (1 mM). Samples were incubated for 1 hr. at 24° C., followed by rapid filtration. […] The affinity for the [^3H]dofetilide binding site on the hERG channel expressed in the HEK-293 cellular membrane was determined from the analog concentration response curves.

[6] = rat striatal synaptic vesicles, read-out: [3H]DA uptake (Ki) VMAT2
[7] = [3H]DA uptake, rat, read-out: VMAT2 (rat) Inhibition: Mean Ki ± Standard Deviation

| SMILES | Ki [1] [nM] | Ki [2, 6] [nM] | also measured |
| --- | --- | --- | --- |
| C[C@@H](Cc1ccccc1)NCCCc1ccccc1 [Compound 6] | 750 ± 140 | 65 ± 4 | – |
| CC(Cc1ccccc1)NCCc1ccc(O)c(O)c1 (stereo not drawn) [Compound 23] | 3400 ± 600 | 92 ± 17 | – |
| FCC(Cc1ccc(F)cc1)NCCCc1ccncc1 (stereo not drawn) [Compound 143] | – | – | CLint scaled at 0.08 µM [3]: 98.1 mL/min/kg; half-life at 0.08 µM [4]: 30 min |
| CC(Cc1ccccc1)N(C)CCc1ccccc1 (stereo not drawn) [Compound 2] | 7530 ± 2160 | 510 ± 100 | – |
| CC(Cc1ccccc1)NCCCc1ccccc1 (stereo not drawn) [Compound 4] | 1130 ± 310 | 7 ± 2 | – |
| CC(CCc1ccccc1)N(C)CCc1ccccc1 (stereo not drawn) [Compound 49] | 29800 ± 11200 | 84 ± 4 | – |
| COc1ccc(CCCNC(C)Cc2ccc(Br)cc2)cc1 (stereo not drawn) [Compound 16] | 460 ± 80 | 12 ± 3 | – |
| CC(Cc1ccccc1)NCCc1ccccc1 (stereo not drawn) [Compound 1] | 7700 ± 1250 | 63 ± 5 | – |
| OCC(Cc1ccc(F)cc1)NCCCc1ccncc1 (stereo not drawn) [Compound 129] | – | – | CLint scaled at 0.08 µM [3]: < 5.2 mL/min/kg; half-life at 0.08 µM [4]: > 240 min |
| CC(Cc1ccc([N+](=O)[O-])cc1)NCCc1ccccc1 (stereo not drawn) [Compound 41] | 5100 ± 1200 | 60 ± 7 | – |
| Fc1ccc(CCCNC(Cc2ccc(F)cc2)C(F)F)cc1 (stereo not drawn) [Compound 82] | – | – | CLint scaled at 0.08 µM [3]: 26.3 mL/min/kg; half-life at 0.08 µM [4]: 48 min |
| COc1ccc(CCCNC(C)CCc2ccc(OC)cc2)cc1 (stereo not drawn) [Compound 53] | 1500 ± 700 | 24 ± 6 | – |
| CC(Cc1ccc(Br)cc1)NCCCCc1ccccc1 (stereo not drawn) [Compound 14] | 81 ± 16 | 3 ± 0.3 | – |
| COc1ccc(CCCNC(C)Cc2ccc(O)cc2)cc1 (stereo not drawn) [Compound 36] | 230 ± 60 | 72 ± 30 | – |
| FCC(Cc1ccc(-c2cccnc2)cc1)NCCCc1ccc(F)cc1 (stereo not drawn) [Compound 84] | – | – | CLint scaled at 0.08 µM [3]: 173 mL/min/kg; Microsomal stability assays: Half-life [4]: 6 min |
| CC(Cc1ccc(Br)cc1)NCCOc1ccccc1 (stereo not drawn) [Compound 20] | 2000 ± 100 | 13 ± 9 | – |
| CC(CCc1ccccc1)NCCCc1ccccc1 (stereo not drawn) [Compound 50] | 4810 ± 1130 | 50 ± 12 | – |
| COc1ccc(CC(C)N(C)CCCc2ccccc2)cc1 (stereo not drawn) [Compound 30] | 7110 ± 820 | 270 ± 38 | – |
| CC(Cc1ccc(O)cc1)NCCCc1ccccc1 (stereo not drawn) [Compound 37] | 820 ± 270 | 33 ± 8 | – |
| CC(Cc1ccccc1)NCCc1ccc(OCc2ccccc2)c(OCc2ccccc2)c1 (stereo not drawn) [Compound 22] | 2000 ± 100 | 120 ± 1 | – |

| SMILES | Ki [1] [nM] | Ki [2, 6] [nM] | also measured |
| --- | --- | --- | --- |
| CC(Cc1ccc(Br)cc1)NCCCc1ccccc1 (stereo not drawn) [Compound 11] | 700 ± 63 | 8 ± 1 | – |
| COc1ccc(CCCNC(C)Cc2ccccc2)cc1 (stereo not drawn) [Compound 8] | 2200 ± 110 | 14 ± 3 | – |
| CC(Cc1ccc(F)cc1)NCCc1ccccc1 (stereo not drawn) [Compound 38] | 2500 ± 1600 | 69 ± 9 | – |
| CC(Cc1ccccc1)NCCOc1ccccc1 (stereo not drawn) [Compound 19] | 4100 ± 300 | 59 ± 7 | – |
| COc1ccc(CCCNC(C)Cc2ccc(OC)cc2)cc1 (stereo not drawn) [Compound 29] | 410 ± 140 | 11 ± 2 | – |
| CC(CCc1ccccc1)N(C)CCCc1ccccc1 (stereo not drawn) [Compound 51] | 17200 ± 6330 | 360 ± 34 | – |
| CC(Cc1ccc(N)cc1)NCCCc1ccccc1 (stereo not drawn) [Compound 45] | 2800 ± 700 | 36 ± 3 | – |
| CC(Cc1ccc(N)cc1)NCCc1ccccc1 (stereo not drawn) [Compound 44] | 17000 | 210 ± 80 | – |
| COc1ccc(CCC(C)NCCc2ccc(Br)cc2)cc1 (stereo not drawn) [Compound 34] | 870 ± 30 | 10 ± 4 | – |
| CC(Cc1ccc([N+](=O)[O-])cc1)NCCCc1ccccc1 (stereo not drawn) [Compound 42] | 2000 ± 300 | 13 ± 4 | – |
| CC(Cc1ccc(F)cc1)NCCCc1ccccc1 (stereo not drawn) [Compound 39] | 1300 ± 300 | 10 ± 0.2 | – |
| CC(Cc1ccccc1)NCCCCc1ccccc1 (stereo not drawn) [Compound 15] | 190 ± 20 | 3 ± 2 | – |
| COc1ccc(CCC(C)NCCCc2ccccc2)cc1 (stereo not drawn) [Compound 32] | 4700 ± 400 | 30 ± 2 | – |
| CC(Cc1ccccc1)NCCCCCc1ccccc1 (stereo not drawn) [Compound 17] | 630 | 14 ± 1 | – |
| C[C@H](Cc1ccccc1)NCCCc1ccccc1 [Compound 5] | 910 ± 590 | 6 ± 1 | – |
| CC(Cc1ccc(N)cc1)NCCCc1ccc(F)cc1 (stereo not drawn) [Compound 112] | – | – | Ki [2, 7]: 16.7 ± 3.34 nM; Microsomal stability assays: Clearance [4]: 23.5 mL/min/kg; Microsomal stability assays: Half-life [4]: 54 min; Ki [5]: 2500 ± 435 nM |
| COc1ccc(CCCNC(C)Cc2ccc(F)cc2)cc1 (stereo not drawn) [Compound 40] | 1700 ± 400 | 17 ± 3 | – |
| COc1ccc(CC(C)NCCc2ccccc2)cc1 (stereo not drawn) [Compound 24] | 3770 ± 990 | 74 ± 2 | – |
| CC(Cc1ccc(F)cc1)NCCCc1ccc(NC=O)cc1 (stereo not drawn) [Compound 70] | – | – | Ki [2, 7]: 22.5 ± 4.48 nM; CLint scaled at 0.08 µM [4]: 23 mL/min/kg; half-life at 0.08 µM [4]: 54 min; Ki [5]: 2600 ± 711 nM |
| CC(Cc1ccccc1)N(C)CCCc1ccccc1 (stereo not drawn) [Compound 7] | 1560 ± 470 | 96 ± 10 | – |

| SMILES | Ki [1] [nM] | Ki [2, 6] [nM] | also measured |
| --- | --- | --- | --- |
| CC(Cc1ccccc1)NCCCc1ccc(I)cc1 (stereo not drawn) [Compound 214] | – | – | Ki [2, 7]: 6.86 ± 1.81 nM; Microsomal stability assays: Clearance [4]: 17.6 mL/min/kg; Microsomal stability assays: Half-life [4]: 72 min; Ki [5]: 3040 ± 1370 nM |
| CC(Cc1ccc([N+](=O)[O-])cc1)NCCCc1ccc(F)cc1 (stereo not drawn) [Compound 118] | – | – | Ki [2, 7]: 7.08 ± 1.29 nM; CLint scaled at 0.08 µM [4]: < 5.2 mL/min/kg; half-life at 0.08 µM [4]: > 240 min; Ki [5]: 206 ± 137 nM |
| COc1ccc(CC(C)NCCCCc2ccccc2)cc1OC (stereo not drawn) [Compound 47] | 1100 ± 100 | 29 ± 11 | – |
| CC(Cc1ccc(N)cc1)NCCCc1ccc(F)cc1 (stereo not drawn) [Compound 109] | – | – | Ki [2, 7]: 19.2 ± 4.43 nM; CLint scaled at 0.08 µM [4]: 25.2 mL/min/kg; half-life at 0.08 µM [4]: 48 min; Ki [5]: 2590 ± 792 nM |
| COc1ccc(CCNC(C)CCc2ccc(OC)cc2)cc1 (stereo not drawn) [Compound 33] | 1500 ± 200 | 60 ± 7 | – |
| CC(CCc1ccccc1)NCCc1ccccc1 (stereo not drawn) [Compound 48] | 1600 ± 330 | 50 ± 4 | – |
| COc1ccc(CC(C)NCCCc2ccccc2)cc1OC (stereo not drawn) [Compound 46] | 3800 ± 100 | 140 ± 13 | – |
| CC(Cc1ccccc1)NCCc1ccc(O)cc1 (stereo not drawn) [Compound 21] | 1500 ± 200 | 120 ± 10 | – |
| CC(Cc1ccc(NC=O)cc1)NCCCc1ccc(F)cc1 (stereo not drawn) [Compound 89] | – | – | Ki [2, 7]: 12.7 ± 2.85 nM; Microsomal stability assays: Clearance [4]: 14 mL/min/kg; Microsomal stability assays: Half-life [4]: 90 min; Ki [5]: 738 ± 244 nM |
| CC(Cc1ccccc1)NCCCc1ccc(Br)cc1 (stereo not drawn) [Compound 218] | – | – | Ki [2, 7]: 14.2 ± 2.17 nM; CLint scaled at 0.08 µM [4]: 9.5 mL/min/kg; half-life at 0.08 µM [4]: 132 min; Ki [5]: 421 ± 38.1 nM |
| COc1ccc(CC(C)NCCCc2ccccc2)cc1 (stereo not drawn) [Compound 26] | 1270 ± 90 | 22 ± 3 | – |
| COc1ccc(CCCNC(C)CCc2ccccc2)cc1 (stereo not drawn) [Compound 52] | 3200 ± 100 | 26 ± 2 | – |
| COc1ccc(CCCNC(C)Cc2ccc([N+](=O)[O-])cc2)cc1 (stereo not drawn) [Compound 43] | 1400 ± 400 | 8 ± 2 | – |
| COc1ccc(CCC(C)NCCc2ccccc2)cc1 (stereo not drawn) [Compound 31] | 2400 ± 100 | 62 ± 29 | – |
| CC(Cc1ccc(O)cc1)NCCc1ccccc1 (stereo not drawn) [Compound 35] | 2600 ± 400 | 47 ± 6 | – |
| CC(Cc1ccc(Br)cc1)NCCc1ccccc1 (stereo not drawn) [Compound 3] | 1230 ± 130 | 33 ± 7 | – |
| CC(Cc1ccncc1)NCCCc1ccc(F)cc1 (stereo not drawn) [Compound 186] | – | – | Ki [2, 7]: 72.4 ± 29.8 nM; CLint scaled at 0.08 µM [4]: 4.3 mL/min/kg; half-life at 0.08 µM [4]: 288 min; Ki [5]: 3320 ± 1930 nM |
| COc1ccc(CC(C)N(C)CCc2ccccc2)cc1 (stereo not drawn) [Compound 25] | 11900 ± 1840 | 460 ± 75 | – |
